Tests used:
AMBEL (Ragweed, Common) = assay: Postemergence herbicidal evaluation; type: in vivo, Ambrosia artemisifolia
How it was run: (§1)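 Visual 0-9 injury score (stand, vigor, malformation, size, chlorosis, appearance vs untreated) taken four to five weeks post-spray, averaged across repeat tests. Test plants about two weeks old; foliar spray of acetone/water (1:1) with 0.5% surfactant delivering ~0.0156-0.500 kg active/ha.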

CASOB (Sicklepod) [1] = assay: Postemergence herbicidal evaluation; type: in vivo, Cassia obtusifolia
How it was run: as §1

[2] = tested on: CHEAL (Lambsquarters, Common); assay: Postemergence herbicidal evaluation; type: in vivo, Chenopodium album
How it was run: as §1

GALAP (Galium) [3] = assay: Postemergence herbicidal evaluation; type: in vivo, Galium aparine
How it was run: as §1

ECHCG (Barnyardgrass) = assay: Postemergence herbicidal evaluation; type: in vivo, Echinochloa crus-galli
How it was run: as §1

SETVI (Foxtail, Green) = assay: Postemergence herbicidal evaluation; type: in vivo, Setaria viridis
How it was run: as §1

[4] = tested on: GLXMAW (Soybean, Williams); assay: Postemergence herbicidal evaluation; type: in vivo, Glycine max, (L.) Merr. cv Williams
How it was run: as §1

ORYSAT (Rice, Tebonnet) = assay: Postemergence herbicidal evaluation; type: in vivo, Oryza sativa, (L.) Tebonnet
How it was run: as §1

CASOB (Sicklepod) [5] = assay: Preemergence herbicidal evaluation; type: in vivo, Cassia obtusifolia; conditions: rated 4-5 weeks after treatment
How it was run: (§2)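 Each species is sown separately in potting soil over roughly an inch of soil before any emergence. The soil surface then receives an aqueous acetone spray delivering about 0.0156 to 0.500 kg/ha of compound. After four to five weeks, injury is scored from 0 to 9 relative to a control.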

GALAP (Galium) [6] = assay: Preemergence herbicidal evaluation; type: in vivo, Galium aparine; conditions: rated 4-5 weeks after treatment
How it was run: as §2

ZEAMX (Corn, Field) = assay: Preemergence herbicidal evaluation; type: in vivo, Zea mays; conditions: rated 4-5 weeks after treatment
How it was run: as §2

CYPIR (Rice Flatsedge) = assay: Preemergence weed control under flooded paddy conditions; type: in vivo, Cyperus iria; conditions: rated 3-4 weeks after treatment
How it was run: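 Herbicidal effect is scored visually on a 0-9 scale against an untreated control, three to four weeks after compounds are pipetted into the flood water (1.5 to 3 cm deep) over seeds planted in silt loam at 0.5 cm depth. Rates: about 0.0313 to 0.500 kg/ha.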

CYPSE (Flatsedge) [7] = assay: as above; type: in vivo, Cyperus serotinus; conditions: rated 3-4 weeks after treatment
How it was run: (§3)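 Greenhouse paddy assay. Acetone/water (50/50 v/v) solutions dosed into flood water, equivalent to about 0.0313 to 0.500 kg/ha active ingredient, over seeds planted 0.5 cm deep in silt loam. Score: 0-9 visual, based on stand, vigor, malformation, size and chlorosis, 3 to 4 weeks after treatment.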

[8] = tested on: SAGPY (Arrowhead (Pygmaea)); assay: as above; type: in vivo, Sagittaria pygmaea; conditions: rated 3-4 weeks after treatment
How it was run: as §3

CYPSE (Flatsedge) [9] = assay: Postemergence weed control under flooded paddy conditions; type: in vivo, Cyperus serotinus; conditions: postemergence weeds, 3-4 weeks after treatment
How it was run: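 Injury ratings (0–9 scale covering stand, vigor, malformation, size, chlorosis and overall appearance versus control) were made three to four weeks after treatment. Test material, about 0.0313 to 0.500 kg/ha a.i. in 50/50 v/v aqueous/acetone, was added to flood water 1.5 to 3 cm deep over 3 to 5 cm weeds and 1.5 to 2.5 leaf rice.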

CCOC(=O)CN1C(=O)C[S+]([O-])/C1=N/c1cc(-n2c(=O)cc(C(F)(F)F)n(C)c2=O)c(F)cc1Cl (stereo not shown) [Compound 45, 2-{{2-Chloro-5-[3,6-dihydro-3-methyl-2,6-dioxo-4-(trifluoromethyl)-1(2H)-pyrimidinyl]-4-fluoro-phenyl}imino}-4-oxo-3-thiazolidineacetic acid, ethyl ester, 1-oxide]
4.0: Postemergence herbicidal rating AMBEL (AMBEL (Ragweed, Common); Rate 0.0313 kg/ha) | Preemergence herbicidal rating ZEAMX (ZEAMX (Corn, Field); rate 0.2500 kg/ha) | Herbicidal rating SAGPY ([8]; 0.2500 kg/ha)
9.0: Postemergence herbicidal rating AMBEL (AMBEL (Ragweed, Common); Rate 0.0625 kg/ha) | Postemergence herbicidal rating CHEAL ([2]; Rate 0.0625 kg/ha)
2.0: Postemergence herbicidal rating SETVI (SETVI (Foxtail, Green); Rate 0.0625 kg/ha) | Postemergence herbicidal rating ORYSAT (ORYSAT (Rice, Tebonnet); Rate 0.0625 kg/ha) | Preemergence herbicidal rating ZEAMX (ZEAMX (Corn, Field); rate 0.1250 kg/ha)
3.0: Herbicidal rating CYPIR (CYPIR (Rice Flatsedge); 0.0625 kg/ha)
6.5: Postemergence herbicidal rating GLXMAW ([4]; Rate 0.0313 kg/ha)
5.5: Postemergence herbicidal rating GLXMAW ([4]; Rate 0.0156 kg/ha)
0.0: Postemergence herbicidal rating CASOB (CASOB (Sicklepod) [1]; Rate 0.0156 kg/ha) | Postemergence herbicidal rating CASOB (CASOB (Sicklepod) [1]; Rate 0.0313 kg/ha) | Postemergence herbicidal rating CASOB (CASOB (Sicklepod) [1]; Rate 0.0625 kg/ha) | Postemergence herbicidal rating CHEAL ([2]; Rate 0.0156 kg/ha) | Postemergence herbicidal rating GALAP (GALAP (Galium) [3]; Rate 0.0156 kg/ha) | Postemergence herbicidal rating GALAP (GALAP (Galium) [3]; Rate 0.0313 kg/ha) | Postemergence herbicidal rating GALAP (GALAP (Galium) [3]; Rate 0.0625 kg/ha) | Postemergence herbicidal rating ECHCG (ECHCG (Barnyardgrass); Rate 0.0156 kg/ha) | Postemergence herbicidal rating ECHCG (ECHCG (Barnyardgrass); Rate 0.0313 kg/ha) | Postemergence herbicidal rating ECHCG (ECHCG (Barnyardgrass); Rate 0.0625 kg/ha) | Postemergence herbicidal rating SETVI (SETVI (Foxtail, Green); Rate 0.0156 kg/ha) | Postemergence herbicidal rating SETVI (SETVI (Foxtail, Green); Rate 0.0313 kg/ha) | Preemergence herbicidal rating CASOB (CASOB (Sicklepod) [5]; rate 0.0156 kg/ha) | Preemergence herbicidal rating CASOB (CASOB (Sicklepod) [5]; rate 0.0313 kg/ha) | Preemergence herbicidal rating CASOB (CASOB (Sicklepod) [5]; rate 0.0625 kg/ha) | Preemergence herbicidal rating CASOB (CASOB (Sicklepod) [5]; rate 0.1250 kg/ha) | Preemergence herbicidal rating CASOB (CASOB (Sicklepod) [5]; rate 0.2500 kg/ha) | Preemergence herbicidal rating GALAP (GALAP (Galium) [6]; rate 0.0156 kg/ha) | Preemergence herbicidal rating GALAP (GALAP (Galium) [6]; rate 0.0313 kg/ha) | Preemergence herbicidal rating GALAP (GALAP (Galium) [6]; rate 0.0625 kg/ha) | Preemergence herbicidal rating GALAP (GALAP (Galium) [6]; rate 0.1250 kg/ha) | Preemergence herbicidal rating ZEAMX (ZEAMX (Corn, Field); rate 0.0156 kg/ha) | Preemergence herbicidal rating ZEAMX (ZEAMX (Corn, Field); rate 0.0313 kg/ha) | Preemergence herbicidal rating ZEAMX (ZEAMX (Corn, Field); rate 0.0625 kg/ha) | Herbicidal rating CYPIR (CYPIR (Rice Flatsedge); 0.0313 kg/ha) | Herbicidal rating CYPSE (CYPSE (Flatsedge) [7]; 0.0313 kg/ha) | Herbicidal rating CYPSE (CYPSE (Flatsedge) [7]; 0.0625 kg/ha) | Herbicidal rating CYPSE (CYPSE (Flatsedge) [7]; 0.2500 kg/ha) | Herbicidal rating SAGPY ([8]; 0.0313 kg/ha) | Herbicidal rating SAGPY ([8]; 0.0625 kg/ha) | Herbicidal rating SAGPY ([8]; 0.1250 kg/ha) | Herbicidal rating CYPSE (CYPSE (Flatsedge) [9]; rate 0.0313 kg/ha) | Herbicidal rating CYPSE (CYPSE (Flatsedge) [9]; rate 0.0625 kg/ha) | Herbicidal rating CYPSE (CYPSE (Flatsedge) [9]; rate 0.2500 kg/ha)
1.5: Postemergence herbicidal rating ORYSAT (ORYSAT (Rice, Tebonnet); Rate 0.0156 kg/ha) | Postemergence herbicidal rating ORYSAT (ORYSAT (Rice, Tebonnet); Rate 0.0313 kg/ha)
5.0: Postemergence herbicidal rating CHEAL ([2]; Rate 0.0313 kg/ha)
7.0: Postemergence herbicidal rating GLXMAW ([4]; Rate 0.0625 kg/ha) | Preemergence herbicidal rating GALAP (GALAP (Galium) [6]; rate 0.2500 kg/ha) | Herbicidal rating CYPIR (CYPIR (Rice Flatsedge); 0.1250 kg/ha) | Herbicidal rating CYPIR (CYPIR (Rice Flatsedge); 0.2500 kg/ha)

— patent US20020137929A1, “1 - (3-heterocyclylphenyl) isothiourea, -isourea, -guanidine and -amidine herbicidal agents” (Intellectual Property Department, BASF Aktiengesellschaft, priority 1998, published 2002)
